Holding throughout (type): cell-based
Assay [1] has as its target T1, human TLR9 (Homo sapiens, UniProt Q9NR96).
T1 construct: host or cells: HEK-Blue cells
T1 sequence (Q9NR96 26-1032): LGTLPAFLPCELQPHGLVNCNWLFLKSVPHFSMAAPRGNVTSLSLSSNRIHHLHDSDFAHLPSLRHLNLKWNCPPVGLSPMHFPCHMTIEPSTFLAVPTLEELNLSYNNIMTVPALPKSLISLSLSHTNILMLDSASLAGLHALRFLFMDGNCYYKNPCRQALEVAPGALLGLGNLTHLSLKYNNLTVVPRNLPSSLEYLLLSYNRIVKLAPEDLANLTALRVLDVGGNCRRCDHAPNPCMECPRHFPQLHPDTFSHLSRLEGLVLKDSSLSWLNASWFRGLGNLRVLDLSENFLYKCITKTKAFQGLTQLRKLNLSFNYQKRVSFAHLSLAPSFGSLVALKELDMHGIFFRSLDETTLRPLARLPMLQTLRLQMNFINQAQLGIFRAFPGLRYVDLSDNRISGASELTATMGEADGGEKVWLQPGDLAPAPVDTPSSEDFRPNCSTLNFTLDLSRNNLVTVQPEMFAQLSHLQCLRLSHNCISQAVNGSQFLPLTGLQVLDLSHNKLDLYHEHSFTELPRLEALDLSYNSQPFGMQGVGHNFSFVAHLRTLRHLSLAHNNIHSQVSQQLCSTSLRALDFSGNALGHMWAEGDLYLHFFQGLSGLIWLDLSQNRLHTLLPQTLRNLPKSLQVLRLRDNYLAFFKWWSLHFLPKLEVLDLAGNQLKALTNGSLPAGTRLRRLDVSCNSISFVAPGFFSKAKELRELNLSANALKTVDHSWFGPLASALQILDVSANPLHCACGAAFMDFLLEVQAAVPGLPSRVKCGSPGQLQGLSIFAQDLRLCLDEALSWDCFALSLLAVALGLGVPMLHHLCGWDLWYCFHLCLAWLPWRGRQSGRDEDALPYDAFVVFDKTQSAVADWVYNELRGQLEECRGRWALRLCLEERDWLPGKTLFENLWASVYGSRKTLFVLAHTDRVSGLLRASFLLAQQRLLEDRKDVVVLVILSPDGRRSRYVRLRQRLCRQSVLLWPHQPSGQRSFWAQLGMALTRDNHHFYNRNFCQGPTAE
Description: TLR9 inhibition reporter assay (HEK-Blue cells, SEAP reporter, ODN2006 stimulation). To be noted: HEK-Blue cells overexpressing human TLR9, SEAP reporter, ODN2006 5 nM. The method, then: TLR7/8/9 Inhibition Reporter Assays
HEK-Blue™-cells (Invivogen) overexpressing human TLR7, TLR8 or TLR9 receptors were used for screening inhibitors of these receptors using an inducible SEAP (secreted embryonic alkaline phosphatase) reporter gene under the control of the IFN-β minimal promoter fused to five NF-κB and AP-1-binding sites. Briefly, cells are seeded into Greiner 384 well plates (15000 cells per well for TLR7, 20,000 for TLR8 and 25,000 for TLR9) and then treated with test compounds in DMSO to yield a final dose response concentration range of 0.05 nM-50 μM. After a 30 minute compound pre-treatment at room temperature, the cells are then stimulated with a TLR7 ligand (gardiquimod at a final concentration of 7.5 μM), TLR8 ligand (R848 at a final concentration of 15.9 μM) or TLR9 ligand (ODN2006 at a final concentration of 5 nM) to activate NF-κB and AP-1 which induce the production of SEAP. After a 22 hour incubation at 37° C., 5% CO2, SEAP levels are determined with the addition of HEK-Blue™ Detection reagent (Invivogen), a cell culture medium that allows for detection of SEAP, according to manufacturer's specifications. The percent inhibition is determined as the % reduction in the HEK-Blue signal present in wells treated with agonist plus DMSO alone compared to wells treated with a known inhibitor.

For assay [2], the target named is T2, human TLR7 (Homo sapiens, UniProt Q9NYK1).
T2 construct: host or cells: HEK-Blue cells
T2 sequence (Q9NYK1 27-1049): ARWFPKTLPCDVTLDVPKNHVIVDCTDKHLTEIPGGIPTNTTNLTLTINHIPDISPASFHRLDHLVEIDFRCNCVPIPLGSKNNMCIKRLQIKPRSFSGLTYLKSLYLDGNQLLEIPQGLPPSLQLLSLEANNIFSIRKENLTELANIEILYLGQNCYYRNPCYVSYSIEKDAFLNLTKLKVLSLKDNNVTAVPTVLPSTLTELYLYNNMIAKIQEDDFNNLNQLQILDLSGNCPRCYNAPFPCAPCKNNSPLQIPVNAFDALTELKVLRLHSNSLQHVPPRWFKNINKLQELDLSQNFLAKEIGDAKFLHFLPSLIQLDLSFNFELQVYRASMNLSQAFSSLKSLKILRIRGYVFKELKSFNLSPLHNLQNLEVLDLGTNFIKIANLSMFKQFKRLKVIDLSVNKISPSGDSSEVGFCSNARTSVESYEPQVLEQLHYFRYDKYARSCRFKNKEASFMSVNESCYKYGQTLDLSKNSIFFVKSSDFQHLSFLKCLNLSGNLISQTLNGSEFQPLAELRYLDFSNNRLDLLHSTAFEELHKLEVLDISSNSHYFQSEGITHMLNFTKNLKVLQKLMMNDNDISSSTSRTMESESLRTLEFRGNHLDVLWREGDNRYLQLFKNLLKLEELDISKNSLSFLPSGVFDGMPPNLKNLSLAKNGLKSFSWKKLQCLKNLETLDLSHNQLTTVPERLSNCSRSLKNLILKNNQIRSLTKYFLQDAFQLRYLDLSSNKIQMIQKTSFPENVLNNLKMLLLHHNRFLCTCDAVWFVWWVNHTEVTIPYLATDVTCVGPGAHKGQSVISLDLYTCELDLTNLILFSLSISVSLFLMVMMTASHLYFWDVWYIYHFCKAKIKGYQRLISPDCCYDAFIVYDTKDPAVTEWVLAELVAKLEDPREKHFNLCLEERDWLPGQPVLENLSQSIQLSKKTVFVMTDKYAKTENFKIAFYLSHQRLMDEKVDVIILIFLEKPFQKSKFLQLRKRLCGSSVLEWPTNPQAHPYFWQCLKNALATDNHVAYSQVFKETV
The assay is described as follows: TLR7 inhibition reporter assay (HEK-Blue cells, SEAP reporter, gardiquimod stimulation). The settings on record: HEK-Blue cells overexpressing human TLR7, SEAP reporter, gardiquimod 7.5 μM; read-out: TLR7 IC50. The procedure, abridged: (§1)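 HEK-Blue cells overexpressing human TLR7, TLR8 or TLR9 carry a SEAP reporter driven by NF-κB/AP-1 sites. Compounds (0.05 nM–50 μM) were preincubated 30 min at room temperature, then cells were stimulated with gardiquimod 7.5 μM (TLR7), R848 15.9 μM (TLR8) or ODN2006 5 nM (TLR9) for 22 h at 37 °C.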
On the technique in general: In a reporter assay the amount or activity of a reporter protein is the signal.

Assay [3] concerns the target T3, human TLR8 (Homo sapiens, UniProt Q9NR97).
T3 construct: host or cells: HEK-Blue cells
T3 sequence (Q9NR97 27-1041): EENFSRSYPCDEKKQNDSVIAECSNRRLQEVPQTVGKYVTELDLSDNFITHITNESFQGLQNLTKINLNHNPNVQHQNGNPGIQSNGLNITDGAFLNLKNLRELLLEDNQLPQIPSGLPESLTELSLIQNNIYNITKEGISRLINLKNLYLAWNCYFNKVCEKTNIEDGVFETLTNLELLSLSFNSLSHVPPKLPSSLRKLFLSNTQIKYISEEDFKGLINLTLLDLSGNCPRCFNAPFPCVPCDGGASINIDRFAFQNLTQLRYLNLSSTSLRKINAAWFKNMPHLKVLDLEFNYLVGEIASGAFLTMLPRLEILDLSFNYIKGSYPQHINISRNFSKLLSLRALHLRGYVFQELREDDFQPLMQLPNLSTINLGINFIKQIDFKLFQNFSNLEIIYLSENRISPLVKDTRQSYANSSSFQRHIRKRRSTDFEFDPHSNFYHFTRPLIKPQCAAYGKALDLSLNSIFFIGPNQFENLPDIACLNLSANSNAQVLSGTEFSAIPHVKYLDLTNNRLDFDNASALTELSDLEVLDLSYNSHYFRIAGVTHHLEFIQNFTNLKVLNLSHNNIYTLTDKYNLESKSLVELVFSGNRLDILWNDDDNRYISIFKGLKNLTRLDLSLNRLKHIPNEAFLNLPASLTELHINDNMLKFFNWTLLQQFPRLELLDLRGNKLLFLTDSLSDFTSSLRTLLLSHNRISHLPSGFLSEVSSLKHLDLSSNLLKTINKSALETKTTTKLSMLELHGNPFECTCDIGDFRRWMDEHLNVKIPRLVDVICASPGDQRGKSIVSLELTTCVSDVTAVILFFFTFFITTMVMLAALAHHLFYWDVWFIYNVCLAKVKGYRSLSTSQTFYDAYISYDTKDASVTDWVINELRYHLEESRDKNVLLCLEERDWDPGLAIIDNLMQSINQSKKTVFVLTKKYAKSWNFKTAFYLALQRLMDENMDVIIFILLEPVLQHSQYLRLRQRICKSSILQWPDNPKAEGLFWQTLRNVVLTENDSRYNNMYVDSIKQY
The assay is described as follows: TLR8 inhibition reporter assay (HEK-Blue cells, SEAP reporter, R848 stimulation). The settings on record: HEK-Blue cells overexpressing human TLR8, SEAP reporter, R848 15.9 μM; read-out: TLR8 IC50. The procedure, abridged: as §1

In the case of `Cc1c(-c2[nH]c3sc(C4CCC(NC5CCS(=O)(=O)C5)CC4)nc3c2C(C)C)cn2ncnc2c1C` (racemic) [Example 230, 3-((4-(5-(7,8-dimethyl-[1,2,4]triazolo[1,5-a]pyridin-6-yl)-6-isopropyl-4H-pyrrolo[3,2-d]thiazol-2-yl)cyclohexyl)amino)tetrahydrothiophene 1,1-dioxide], the IC50 (as a rule, the concentration at which inhibition is half-maximal) in assay [1] was found to be 43500 nM; in assay [2], 4.92 nM; in assay [3] it was 1.5 nM.
Regarding `COc1cc(-c2[nH]c3sc(C4CCC(NC5COC5)CC4)nc3c2C(C)C)cn2ncnc12` (single isomer, unassigned) [Example 66, N-(4-(6-isopropyl-5-(8-methoxy-[1,2,4]triazolo[1,5-a]pyridin-6-yl)-4H-pyrrolo[3,2-d]thiazol-2-yl)cyclohexyl)oxetan-3-amine], the IC50 worked out at 5710 nM in assay [1], 3.59 nM in assay [2] and 16.9 nM in assay [3].
Consider `COc1cc(-c2[nH]c3sc(C4CCC(N5CC(CO)(CO)C5)CC4)nc3c2C(C)C)cn2ncnc12` (single isomer, unassigned) [Example 67, (1-(4-(6-isopropyl-5-(8-methoxy-[1,2,4]triazolo[1,5-a]pyridin-6-yl)-4H-pyrrolo[3,2-d]thiazol-2-yl)cyclohexyl)azetidine-3,3-diyl)dimethanol], for which the IC50 in assay [1] came to 2250 nM; in assay [2] it was 12.6 nM; in assay [3] it was 12.9 nM.
As to `COc1cc(-c2[nH]c3sc(C4CCC(N5CC6(COC6)C5)CC4)nc3c2C(C)C)cn2ncnc12` (single isomer, unassigned) [Example 68, 6-(4-(6-isopropyl-5-(8-methoxy-[1,2,4]triazolo[1,5-a]pyridin-6-yl)-4H-pyrrolo[3,2-d]thiazol-2-yl)cyclohexyl)-2-oxa-6-azaspiro[3.3]heptane], the IC50 in assay [1] came out at 3500 nM; in assay [2], 0.81 nM; in assay [3], 0.58 nM.
With `COc1cc(-c2[nH]c3sc(C4CCC(N5CC6(COC6)C5)CC4)nc3c2C(C)C)cn2ncnc12` (single isomer, unassigned) [Example 69, 6-(4-(6-isopropyl-5-(8-methoxy-[1,2,4]triazolo[1,5-a]pyridin-6-yl)-4H-pyrrolo[3,2-d]thiazol-2-yl)cyclohexyl)-2-oxa-6-azaspiro[3.3]heptane], the IC50 in assay [1] was found to be 6320 nM; in assay [2], 4.17 nM; in assay [3], 35.6 nM.
In the case of `COc1cc(-c2[nH]c3sc(C4CCC(NC5(C)COC5)CC4)nc3c2C(C)C)cn2ncnc12` (single isomer, unassigned) [Example 70, N-(4-(6-isopropyl-5-(8-methoxy-[1,2,4]triazolo[1,5-a]pyridin-6-yl)-4H-pyrrolo[3,2-d]thiazol-2-yl)cyclohexyl)-3-methyloxetan-3-amine], the IC50 in assay [1] came out at 6610 nM; in assay [2], 0.58 nM; in assay [3], 1.46 nM.
Consider `COc1cc(-c2[nH]c3sc(C4CCC(NC5(C)COC5)CC4)nc3c2C(C)C)cn2ncnc12` (single isomer, unassigned) [Example 71, N-(4-(6-isopropyl-5-(8-methoxy-[1,2,4]triazolo[1,5-a]pyridin-6-yl)-4H-pyrrolo[3,2-d]thiazol-2-yl)cyclohexyl)-3-methyloxetan-3-amine], for which the figures for the IC50 in assay [1], in assay [2] and in assay [3] were 5810 nM, 6.92 nM and 19 nM, respectively.
For the molecule `COCCN1CCN(c2nc3c(C(C)C)c(-c4cc(C)c5ncnn5c4)[nH]c3s2)[C@H](C)C1` [Example 357, (R)-6-isopropyl-2-(4-(2-methoxyethyl)-2-methylpiperazin-1-yl)-5-(8-methyl-[1,2,4]triazolo[1,5-a]pyridin-6-yl)-4H-pyrrolo[3,2-d]thiazole], the IC50 worked out at 38100 nM in assay [1] and 1280 nM in assay [2].
For `Cc1cc(-c2[nH]c3sc(N4CCN(CC(C)C)C[C@H]4C)nc3c2C(C)C)cn2ncnc12` [Example 361, (R)-2-(4-isobutyl-2-methylpiperazin-1-yl)-6-isopropyl-5-(8-methyl-[1,2,4]triazolo[1,5-a]pyridin-6-yl)-4H-pyrrolo[3,2-d]thiazole], in that order: 45600 nM and 719 nM.
